Laboratory results taken from the supplement of paper PMC10307832.

Columns and labels:
Assay in all cases: relative viability (nuclei count vs DMSO), 5 days (fraction); higher = more cells survive
[1] = compound: CCN1CCN(c2ccc(Nc3cc(N(C)C(=O)Nc4c(Cl)c(OC)cc(OC)c4Cl)ncn3)cc2)CC1 [BGJ398] + CC(=O)Nc1cccc(-n2c(=O)n(C3CC3)c(=O)c3c(Nc4ccc(I)cc4F)n(C)c(=O)c(C)c32)c1 [Trametinib] (partner 0.02 µM)
How it was run: (§1)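 Relative viability equals treated-well nuclei counts divided by vehicle-well nuclei counts. Counts came from 4× images of lung cancer cell lines grown in 1536-well plates for 5 days after pin-tool dosing on the day after seeding. Dosing used one drug alone or a fixed anchor-drug dose plus five library-drug doses (not always all listed) in √10 steps, and values are medians of duplicate plates.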

[2] = compound: C1=CC2=NC=CN=C2C=C1/C=C/3\C(=O)NC(=O)S3 + COc1cc2c(Oc3ccc(NC(=O)C4(C(=O)Nc5ccc(F)cc5)CC4)cc3F)ccnc2cc1OCCCN1CCOCC1 [Foretinib] (partner 0.25 µM)
How it was run: as §1

[3] = compound: C1=CC2=NC=CN=C2C=C1/C=C/3\C(=O)NC(=O)S3 + O=C(CCCCCCC(=O)Nc1ccccc1)NO [Vorinostat] (partner 1 µM)
How it was run: as §1

[4] = compound: CCN1CCN(c2ccc(Nc3cc(N(C)C(=O)Nc4c(Cl)c(OC)cc(OC)c4Cl)ncn3)cc2)CC1 [BGJ398] + CC1(C)CCC(c2ccc(Cl)cc2)=C(CN2CCN(c3ccc(C(=O)NS(=O)(=O)c4ccc(N[C@H](CCN5CCOCC5)CSc5ccccc5)c(S(=O)(=O)C(F)(F)F)c4)cc3)CC2)C1 [Navitoclax] (partner 0.5 µM)
How it was run: as §1

| Cell Line | relative viability ([1]; first compound 0.01 µM) | relative viability ([1]; first compound 0.03162 µM) | relative viability ([1]; first compound 0.1 µM) | relative viability ([1]; first compound 0.3162 µM) | relative viability ([1]; first compound 1 µM) | relative viability ([2]; first compound 0.02 µM) | relative viability ([2]; first compound 0.06325 µM) | relative viability ([2]; first compound 0.2 µM) | relative viability ([2]; first compound 0.6325 µM) | relative viability ([2]; first compound 2 µM) | relative viability ([3]; first compound 0.02 µM) | relative viability ([3]; first compound 0.06325 µM) | relative viability ([3]; first compound 0.2 µM) | relative viability ([3]; first compound 0.6325 µM) | relative viability ([3]; first compound 2 µM) | relative viability ([4]; first compound 0.01 µM) | relative viability ([4]; first compound 0.03162 µM) | relative viability ([4]; first compound 0.1 µM) | relative viability ([4]; first compound 0.3162 µM) | relative viability ([4]; first compound 1 µM) |
| --- | --- | --- | --- | --- | --- | --- | --- | --- | --- | --- | --- | --- | --- | --- | --- | --- | --- | --- | --- | --- |
| HCC-78 | 0.55 | 0.868 | 0.858 | 0.696 | 0.619 | 0.54 | 0.469 | 0.538 | 0.534 | 0.4 | 0.464 | 0.428 | 0.379 | 0.449 | 0.349 | 0.734 | 0.751 | 0.935 | 0.879 | 0.823 |
| HCC-366 | 0.309 | 0.375 | 0.387 | 0.311 | 0.325 | 0.916 |  | 0.863 | 0.901 | 0.985 | 0.293 |  | 0.436 | 0.305 | 0.204 | 1.01 | 1.18 | 0.995 | 1.02 | 1.1 |
| HCC-827 | 0.482 |  | 0.542 | 0.399 | 0.623 | 1.09 | 1.05 | 1.02 | 0.95 | 1.04 | 0.797 | 0.702 | 0.833 | 0.874 | 0.465 | 0.935 |  | 1.03 | 1.02 | 1.02 |
| HOP-62 | 0.395 | 0.364 | 0.359 | 0.291 | 0.288 | 1.06 | 1.22 | 1.11 | 1.01 | 1.07 | 0.571 | 0.694 | 0.732 | 0.581 | 0.571 | 0.915 | 1 | 1.1 | 1.02 | 1.01 |
| IA-LM |  |  |  |  |  | 1.15 | 1.28 | 1.15 | 1.2 | 1.25 | 0.884 | 0.467 | 0.964 | 0.985 | 0.968 | 0.614 | 0.798 | 0.764 | 0.724 | 0.917 |
| LC-2-ad | 0.912 | 0.935 | 0.892 | 0.873 | 0.985 | 0.889 | 0.951 | 0.995 | 0.917 | 0.699 | 0.589 | 0.768 | 0.707 | 0.668 | 0.434 | 0.366 | 0.575 | 0.519 | 0.612 | 0.392 |
| LCLC-97TM1 | 0.185 | 0.205 | 0.215 | 0.21 | 0.218 | 0.919 | 0.908 | 0.908 | 0.996 | 0.688 | 0.617 | 0.637 | 0.659 | 0.576 | 0.153 | 0.315 | 0.271 | 0.41 | 0.683 | 0.646 |
| LCLC-103H | 0.703 | 0.623 | 0.65 | 0.642 | 0.535 | 0.864 | 0.711 | 0.813 | 0.653 | 0.648 | 0.694 | 0.804 | 0.846 | 0.685 | 0.651 |  |  |  |  |  |
| LK-2 | 0.788 | 0.726 | 0.561 | 0.32 | 0.268 | 1.06 | 1.16 | 1.26 | 1.03 | 0.789 | 0.245 | 0.353 | 0.37 | 0.213 | 0.169 | 0.72 | 0.733 | 0.726 | 0.529 | 0.317 |
| LOU-NH91 | 0.718 | 0.689 | 0.779 | 0.705 | 0.759 | 0.917 | 0.965 | 0.964 | 0.923 | 0.855 | 0.965 | 0.887 | 0.987 | 0.908 | 0.727 | 0.685 | 0.402 | 0.668 | 0.427 | 0.701 |
| NCI-H358 | 0.137 | 0.127 | 0.134 | 0.126 | 0.148 | 0.875 | 0.648 | 0.672 | 0.613 | 0.445 | 0.674 | 0.714 | 0.725 | 0.659 | 0.579 |  |  |  |  |  |
| NCI-H522 | 0.743 | 0.797 | 0.709 | 0.644 | 0.736 |  |  |  |  |  | 0.768 | 0.839 | 1.22 | 0.75 | 0.795 |  |  |  |  |  |
| NCI-H650 | 0.927 | 1.04 | 1.08 | 0.963 | 0.959 | 1.01 | 1.09 | 1.04 | 1.08 | 0.711 | 0.465 | 0.377 | 0.434 | 0.42 | 0.254 |  |  |  |  |  |
| NCI-H661 | 0.479 | 0.599 | 0.642 | 0.516 | 0.63 | 1 | 1.05 | 1.07 | 0.957 | 1.08 | 0.75 | 0.86 | 0.845 | 0.799 | 0.948 |  |  |  |  |  |
| NCI-H1299 |  |  |  |  |  | 1.01 | 1.11 | 1.11 | 1.09 | 1.15 |  |  |  |  |  | 1.06 | 1.06 | 1.03 | 1.03 | 1.06 |
| NCI-H1563 |  |  |  |  |  | 0.901 | 0.979 | 0.914 | 0.895 | 0.943 |  |  |  |  |  |  |  |  |  |  |
| NCI-H1623 |  |  |  |  |  | 0.756 | 0.855 | 0.953 | 0.82 | 0.799 |  |  |  |  |  |  |  |  |  |  |
| NCI-H1648 | 0.411 |  | 0.474 | 0.393 | 0.417 |  |  |  |  |  | 0.435 | 0.357 | 0.424 |  | 0.423 |  |  |  |  |  |
| NCI-H1703 |  |  |  |  |  | 0.38 | 0.442 | 0.34 | 0.295 | 0.324 |  |  |  |  |  | 0.823 | 1.39 | 0.989 | 1.14 | 0.964 |
| NCI-H1792 | 0.359 | 0.361 | 0.342 | 0.215 | 0.17 |  |  |  |  |  |  |  |  |  |  | 0.659 | 0.561 | 0.642 | 0.601 | 0.553 |
| NCI-H2342 | 1.04 | 0.906 | 0.893 | 1.03 | 0.978 | 0.891 | 0.93 | 1.02 | 0.953 | 0.891 | 0.677 | 0.781 | 0.799 | 0.731 | 0.636 |  |  |  |  |  |
| SW 900 | 0.723 | 0.679 | 0.655 | 0.735 | 0.568 | 0.703 | 0.823 | 0.77 | 1.06 | 0.797 | 0.544 | 0.517 | 0.453 |  | 0.647 |  |  |  |  |  |
